Source: PubChem BioAssay (NCI)
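Cultured in 96-well plates, cells were exposed to test compound for 48 hours across five concentrations. Here, GI50 denotes the concentration required for 50% inhibition of growth. Definition used: TGI = concentration required for complete inhibition of growth.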

Columns and labels:
Test in all cases: NCI tumour cell line growth inhibition, 48 h
[1] = test system: HOP-92 NSCLC
[2] = test system: SF-539 CNS
[3] = test system: MOLT-4 leukemia
[4] = test system: DU-145 prostate
[5] = test system: UO-31 renal
[6] = test system: COLO 205 colon
[7] = test system: RXF 393 renal
[8] = test system: SK-OV-3 ovarian
[9] = test system: HS 578T breast
[10] = test system: MALME-3M melanoma

Row | Compound | GI50 [1] [µM] | TGI [1] [µM] | GI50 [2] [µM] | TGI [2] [µM] | GI50 [3] [µM] | TGI [3] [µM] | GI50 [4] [µM] | TGI [4] [µM] | GI50 [5] [µM] | TGI [5] [µM] | GI50 [6] [µM] | TGI [6] [µM] | GI50 [7] [µM] | TGI [7] [µM] | GI50 [8] [µM] | TGI [8] [µM] | GI50 [9] [µM] | TGI [9] [µM] | GI50 [10] [µM] | TGI [10] [µM]
1 | COc1ccc(CN2c3ccccc3Sc3ccccc32)cc1O | 0.502 | 17.5 | 0.27 | 0.823 | 0.42 | 22.4 | 0.374 | 15 | 0.751 | 18.9 | 0.789 | 4.6 | 0.338 | 15.6 | 0.521 | 16.4 | 0.933 | 46 | 12.1 | 28.1
2 | N#C/C(=C/C=C/c1cccc(Cl)c1)S(=O)c1ccccc1 (stereo not given) | 0.398 | 1.62 | 0.281 | 0.882 | 0.307 | 2.28 | 0.393 | 1.56 | 0.358 | 1.71 | 0.386 | 1.31 | 0.233 | 0.568 | 2.21 | 10.2 | 1.68 | 33.4 | 1.05 | 2.69
3 | CCOC(=O)/C=C/c1ccc([N+](=O)[O-])o1 | 2.66 | 6.36 | 2.7 | 7.4 | 2.76 | 13 | 3.17 | 11.1 | 1.69 | 3.42 | 2.26 | 5.69 | 1.82 | 3.86 | 22.4 | > 100 | 5.74 | 53.9 | 2.32 | 4.99
4 | COc1ccc2c(c1)[n+](=O)c(/C=C/C(=O)c1cc(OC)c(OC)c(OC)c1)c(C)n2[O-] | 2.56 | 19.1 | 15.7 | 38.8 | 2.55 | 25.3 | 2.1 | 13.4 | 3.57 | > 100 | 1.65 | 11.3 | 3.98 | > 100 | 23.9 | 92.8 | 4.72 | 46.6 | 17 | > 100
5 | O=C1C=C(NCCc2ccccc2)c2ccccc2C1=O | – | 29.5 | – | 4.46 | – | 64.8 | – | 3.13 | – | 11.4 | – | 3.6 | – | 20.4 | – | 27 | – | 5.09 | – | 2.47
6 | COc1ccc2c(CN3CCCC[C@H]3O)cc3cc4c(cc3c2c1)OCO4 | 0.241 | 2.4 | 0.375 | 1.83 | 0.283 | 4.55 | 0.475 | 7.24 | 0.31 | 5.67 | 0.185 | 1.36 | 0.191 | 0.95 | 0.275 | 0.961 | 0.663 | 2.94 | 0.218 | 0.61
7 | COC(=O)c1c(C(=O)O)c(-c2ccccc2)c(-c2ccccc2)c(-c2ccccc2)c1-c1ccccc1 | > 100 | > 100 | > 100 | > 100 | > 100 | > 100 | > 100 | > 100 | 14.7 | 43.5 | > 100 | > 100 | > 100 | > 100 | > 100 | > 100 | > 100 | > 100 | > 100 | > 100
8 | COc1ccc(C(=O)c2ccccc2)c(O)c1 | 78.5 | > 100 | > 100 | > 100 | 70.6 | > 100 | 80 | > 100 | 17 | > 100 | > 100 | > 100 | 41 | > 100 | > 100 | > 100 | 61.2 | > 100 | 61.4 | > 100
9 | Cc1cc(C)c(-c2c(O)c(Br)c(-c3c(C)cc(C)c(Br)c3C)c(O)c2Br)c(C)c1Br | 0.66 | 5.67 | 2.6 | 8.11 | 2.39 | 13 | 4.21 | 16 | 1.29 | 8.22 | 1.73 | 3.54 | 2.27 | 7.31 | 4.77 | 23.8 | 2.32 | 11.9 | 1.65 | 5.8
10 | CCOC(=O)c1sc(NC(=O)COc2ccc(/C=C3\CCc4cc(OC)ccc4C3=O)cc2)nc1C | 1.18 | 4.61 | 11.7 | 23.9 | 1.76 | 15.3 | 12.8 | 26.4 | 1.78 | 9.64 | 15.5 | 30 | 12 | 29.3 | 18.7 | 45.3 | 13.4 | 42.4 | 1.13 | 12.6
11 | CC(C)C(Br)C(=O)NCC(=O)O (stereo not given) | – | > 100 | – | > 100 | – | > 100 | – | > 100 | – | > 100 | – | > 100 | – | > 100 | – | > 100 | – | > 100 | – | > 100
12 | S=C(Nc1ccc(-c2nc3ccccc3s2)cc1)Nc1ccc(-c2nc3ccccc3s2)cc1 | 15.3 | 53.6 | 16.6 | 42.4 | 10.2 | > 100 | 19.1 | 62.5 | 12.4 | 34 | 27.4 | > 100 | 15.9 | 50.4 | 58.8 | > 100 | 17.8 | 47.4 | 20 | 65.4
